The values below are quoted from earlier work in US11559486B2, “Ready-to-use formulation for Vincristine Sulfate Liposome Injection” (Spectrum Pharmaceuticals, Inc., priority 2015, dated 2023).

For this data set the following is noted: 0.45% aqueous sodium chloride and Ringers admixtures at 25° C. to 37° C.

Turning to `COc1cccc2c1C(=O)c1c(O)c3c(c(O)c1C2=O)C[C@@](O)(C(=O)CO)C[C@@H]3O[C@H]1C[C@H](N)[C@H](O)[C@H](C)O1` [Doxorubicin], the “degradation in chloride-containing admixtures” value is “degrade rapidly”.
For the compound `CC[C@]1(O)C[C@H]2CN(CCc3c([nH]c4ccccc34)[C@@](C(=O)OC)(c3cc4c(cc3OC)N(C=O)[C@H]3[C@@](O)(C(=O)OC)[C@H](OC(C)=O)[C@]5(CC)C=CCN6CC[C@]43[C@@H]65)C2)C1` [vincristine, (3aR,3a^1R,4R,5S,5aR,10bR)-methyl-4-acetoxy-3a-ethyl-9-((5S,7S,9S)-5-ethyl-5-hydroxy-9-(methoxycarbonyl)-2,4,5,6,7,8,9,10-octahydro-1H-3,7-methano[1]azacycloundecino[5,4-b]indol-9-yl)-6-formyl-5-hydroxy-8-methoxy-3a,3a1,4,5,5a,6,11,12-octahydro-1H-indolizino[8,1-cd]carbazole-5-carboxylate], the “degradation in chloride-containing admixtures” value is given as “degrade rapidly”.
